Experimental data: paper PMC8162404, “Proteomimetic surface fragments distinguish targets by function” (Chemical Science, 2020)
Read-outs that look alike come from different tables or passages of the source.

Key:
Assay in all cases: Pull-down assay with immobilized protein and LSM libraries
S100A4 = target: T1, S100A4 (Homo sapiens, UniProt P26447); assay type: binding; settings: 1:1 binding assumed, read-out: Surface mapping KD (apparent)
T1 construct: made in house; host or cells: Escherichia coli BL21(DE3)
T1 sequence (P26447 whole entry): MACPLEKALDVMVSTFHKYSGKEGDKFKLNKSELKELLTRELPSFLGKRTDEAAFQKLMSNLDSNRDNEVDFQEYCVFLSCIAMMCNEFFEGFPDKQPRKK
Summary of the method: (§1)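 Buffers were HEPES pH 7.4 with 150 mM NaCl, plus 1 mM TCEP and 1 mM CaCl2 (50 mM HEPES) for S100A4 and S100B, 1 mM TCEP for Gal-1, and no additive for RecQ-WH. Immobilized protein at 64 µM was equilibrated 30 min with the LSM sublibrary, and unbound probes were measured by LC-MS.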

Gal-1 = target: T2, Gal-1 (Homo sapiens, UniProt P09382); assay type: binding; settings: 1:1 binding assumed, read-out: Surface mapping KD (apparent)
T2 construct: made in house; host or cells: E. coli BL21(DE3)
T2 sequence (P09382 whole entry): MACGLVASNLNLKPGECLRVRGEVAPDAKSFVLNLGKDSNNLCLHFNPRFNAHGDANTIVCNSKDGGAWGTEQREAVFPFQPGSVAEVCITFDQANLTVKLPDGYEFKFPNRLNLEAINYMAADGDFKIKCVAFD
Summary of the method: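 His-tagged protein immobilized on Co-NTA resin (64 µM) in 20 mM HEPES pH 7.4, 150 mM NaCl, equilibrated 30 min at room temperature with foldamer LSM sublibraries at equimolar total concentration. Unbound fractions quantified by HPLC-MS versus protein-free resin control; apparent KD assumes 1:1 binding.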

S100B = target: T3, S100B (Homo sapiens, UniProt P04271); assay type: binding; settings: 1:1 binding assumed, read-out: Surface mapping KD (apparent)
T3 construct: made in house; host or cells: Escherichia coli BL21(DE3)
T3 sequence (P04271 1-92): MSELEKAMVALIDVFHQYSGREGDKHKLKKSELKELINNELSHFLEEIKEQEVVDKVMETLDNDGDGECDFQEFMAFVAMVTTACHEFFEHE
Summary of the method: as §1

CaM = target: T4, CaM (Bos taurus, UniProt P62157); assay type: binding, bovine; settings: 1:2 stoichiometry assumed, read-out: Surface mapping KD (apparent)
T4 construct: made in house; host or cells: E. coli BL21 (DE3)
Protocol: Pull-down assays with immobilized test proteins and foldameric LSM libraries were carried out. Proteins were equilibrated with LSM probes, and equilibrium bound fractions (FB) were determined from the unbound fractions measured by HPLC-MS methods. Hits were corrected with background binding of the resin. The protocol allowed all binding events to equilibrate irrespective of affinity, specificity, and binding kinetics. This was essential to judge overall druggability and promiscuity. Importantly, the concentration of protein and the total concentration of foldameric LSMs were equimolar, which minimized competition between the probes. This experimental setup approximated independent binding of individual library members. Results were visualized as heat maps of dissociation constants (Fig. 3).
Pull-down assay and data analysis
Pull-down assay. LSM sublibraries were screened separately as previously described.(2) Experiments were performed in the following buffers: (i) 20 mM pH 7.4 HEPES, 150 mM NaCl, 5 mM CaCl2 for CaM; (ii) 50 mM pH 7.4 HEPES, 150 mM NaCl, 1 mM TCEP, 1 mM CaCl2 for S100 proteins; (iii) 20 mM pH 7.4 HEPES, 150 mM NaCl, 1 mM TCEP for Gal-1 and (iv) 20 mM pH 7.4 HEPES, 150 mM NaCl for RecQ-WH. Assays were performed in paper filter spin cups (Thermo Scientific) with sample volumes of 100 µl. Hexahistidine-tagged proteins were immobilized on previously washed Co-NTA resin (TALON, Takara Bio USA, Inc., […]
LSM sublibrary was added, in which each of the 64 library members were used at a concentration of 1 µM. Samples were incubated at room temperature for 30 min with shaking at 100 rpm. Then, samples were centrifuged at 1000 rpm for 2 min and washed with 100 µl pull-down buffer to remove unbound compounds.
The control experiments were performed using the same compounds and the resin but without the immobilized protein. In case of competitive assays, competitor peptides were added to LSM sublibrary samples in 200 µM final concentration. In the case of Gal-1, lactose (competitor) was used in a concentration of 10 mM. Experiments were performed at least twice. Mean […]
LC-MS methods and parameters. HPLC/ESI-MS analysis was used to characterize the samples from the pull-down assay. LC-MS analysis was performed with a Thermo Scientific Dionex UltiMate 3000 HPLC system interfaced to an LTQ ion trap mass spectrometer (Thermo Electron Corp., San Jose, CA, USA). Samples were injected onto an Aeris Widepore XB-C18 (250 x 4.6 mm) analytical HPLC column using gradient elution 5-80 % solution B during 25 minutes. For pull-down samples, eluent composition was 0.1% acetic acid in distilled water (Solution A) and 0.1% acetic acid in acetonitrile (solution B). Mass spectra were acquired in full scan mode from 200 to 2000 m/z range. For overlapping peaks, selective reaction monitoring (SRM) was […]
MS data analysis. Thermo Xcalibur 2.2 software was used for peak identification and integration. The majority of the foldameric fragments could be resolved independently via HPLC-MS/MS measurements based on molecular weight, MS fragmentation pattern and retention time. Peaks of some foldamers with β3-hIle or β3-hLeu in position R2 could not be resolved, these were integrated and averaged. In the processing method, each sample component was associated to a chromatographic peak based on previously identified mass (m/z) and retention time (ref (2) and Table S7-10). Using ICIS peak detection algorithm, the general detection and integration criteria were: smoothing points: 5, baseline window: 80, area noise factor: 5, peak noise factor: 10. Using these processing setups, all raw data files were reprocessed together and analyzed. Errors in peak identification during the automatic processing were corrected manually.
Calculation of the discussed parameters
1. Bound fractions (FB.) were calculated from the HPLC-MS intensity loss of the LSM probes compared to the control where no protein was immobilized to the resin: […]

SMILES | Kd (Gal-1; H12 library) | Kd (S100B; H12 library) | Kd (CaM; H12 library) | other results
NC(=O)[C@H]1CCC[C@@H]1NC(=O)[C@H]1CCC[C@@H]1NC(=O)C[C@H](Cc1ccc(O)cc1)NC(=O)[C@H]1CCC[C@@H]1NC(=O)[C@H]1CCC[C@@H]1NC(=O)C[C@H](Cc1ccccc1)NC(=O)[C@H]1CCC[C@@H]1NC(=O)[C@H]1CCC[C@@H]1N [H12 FY] |  | 59 µM |  | Kd (S100A4; H12 library): 192 µM
CC(C)C[C@@H](CC(=O)N[C@H]1CCC[C@@H]1C(=O)N[C@H]1CCC[C@@H]1C(=O)N[C@H](CC(=O)N[C@H]1CCC[C@@H]1C(=O)N[C@H]1CCC[C@@H]1C(N)=O)C(C)C)NC(=O)[C@H]1CCC[C@@H]1NC(=O)[C@H]1CCC[C@@H]1N [H12 LV] | 468 µM | 116 µM | 270 µM | 
NC(=O)[C@H]1CCC[C@@H]1NC(=O)[C@H]1CCC[C@@H]1NC(=O)C[C@H](Cc1c[nH]c2ccccc12)NC(=O)[C@H]1CCC[C@@H]1NC(=O)[C@H]1CCC[C@@H]1NC(=O)C[C@H](CO)NC(=O)[C@H]1CCC[C@@H]1NC(=O)[C@H]1CCC[C@@H]1N [H12 SW] | 459 µM | 114 µM | 41 µM | 
CC(C)[C@@H](CC(=O)N[C@H]1CCC[C@@H]1C(=O)N[C@H]1CCC[C@@H]1C(=O)N[C@@H](CCC(N)=O)CC(=O)N[C@H]1CCC[C@@H]1C(=O)N[C@H]1CCC[C@@H]1C(N)=O)NC(=O)[C@H]1CCC[C@@H]1NC(=O)[C@H]1CCC[C@@H]1N [H12 VQ] | 436 µM |  |  | Kd (S100A4; H12 library): 497 µM
C[C@@H](O)[C@@H](CC(=O)N[C@H]1CCC[C@@H]1C(=O)N[C@H]1CCC[C@@H]1C(N)=O)NC(=O)[C@H]1CCC[C@@H]1NC(=O)[C@H]1CCC[C@@H]1NC(=O)C[C@H](Cc1c[nH]c2ccccc12)NC(=O)[C@H]1CCC[C@@H]1NC(=O)[C@H]1CCC[C@@H]1N [H12 WT] | 448 µM | 56 µM | 365 µM | 
C[C@@H](CC(=O)N[C@H]1CCCC[C@@H]1C(=O)N[C@H]1CCCC[C@@H]1C(=O)N[C@@H](CCCNC(=N)N)CC(=O)N[C@H]1CCCC[C@@H]1C(N)=O)NC(=O)[C@H]1CCCC[C@@H]1N [H14 AR] |  |  |  | Kd (S100B; H14 library): 126 µM; Kd (Gal-1; H14 library): 348 µM; Kd (CaM; H14 library): 126 µM
CC(C)C[C@@H](CC(=O)N[C@H]1CCCC[C@@H]1C(=O)N[C@H]1CCCC[C@@H]1C(=O)N[C@@H](CCC(=O)O)CC(=O)N[C@H]1CCCC[C@@H]1C(N)=O)NC(=O)[C@H]1CCCC[C@@H]1N [H14 LE] |  |  |  | Kd (S100A4; H14 library): 427 µM; Kd (Gal-1; H14 library): 463 µM
NCCCC[C@@H](CC(=O)N[C@H]1CCCC[C@@H]1C(N)=O)NC(=O)[C@H]1CCCC[C@@H]1NC(=O)[C@H]1CCCC[C@@H]1NC(=O)C[C@H](CO)NC(=O)[C@H]1CCCC[C@@H]1N [H14 SK] |  |  |  | Kd (S100B; H14 library): 181 µM; Kd (Gal-1; H14 library): 438 µM; Kd (CaM; H14 library): 91 µM
NC(=O)[C@H]1CCCC[C@@H]1NC(=O)C[C@H](CCC(=O)O)NC(=O)[C@H]1CCCC[C@@H]1NC(=O)[C@H]1CCCC[C@@H]1NC(=O)C[C@H](Cc1ccc(O)cc1)NC(=O)[C@H]1CCCC[C@@H]1N [H14 YE] |  |  |  | Kd (S100A4; H14 library): 371 µM

More lines, in order of falling Kd (Gal-1; H12 library), values ahead:

Kd (Gal-1; H12 library) | Kd (S100B; H12 library) | Kd (CaM; H12 library) | SMILES | other results
412 µM | 170 µM | 55 µM | NC(=O)CC[C@@H](CC(=O)N[C@H]1CCC[C@@H]1C(=O)N[C@H]1CCC[C@@H]1C(=O)N[C@H](CC(=O)N[C@H]1CCC[C@@H]1C(=O)N[C@H]1CCC[C@@H]1C(N)=O)Cc1c[nH]c2ccccc12)NC(=O)[C@H]1CCC[C@@H]1NC(=O)[C@H]1CCC[C@@H]1N [H12 QW] | 
385 µM | 60 µM | 303 µM | C[C@@H](CC(=O)N[C@H]1CCC[C@@H]1C(=O)N[C@H]1CCC[C@@H]1C(N)=O)NC(=O)[C@H]1CCC[C@@H]1NC(=O)[C@H]1CCC[C@@H]1NC(=O)C[C@H](Cc1c[nH]c2ccccc12)NC(=O)[C@H]1CCC[C@@H]1NC(=O)[C@H]1CCC[C@@H]1N [H12 WA] | 
286 µM | 102 µM | 178 µM | CSCC[C@@H](CC(=O)N[C@H]1CCC[C@@H]1C(=O)N[C@H]1CCC[C@@H]1C(=O)N[C@H](CC(=O)N[C@H]1CCC[C@@H]1C(=O)N[C@H]1CCC[C@@H]1C(N)=O)Cc1ccc(O)cc1)NC(=O)[C@H]1CCC[C@@H]1NC(=O)[C@H]1CCC[C@@H]1N [H12 MY] | 
286 µM | 102 µM | 178 µM | CSCC[C@@H](CC(=O)N[C@H]1CCC[C@@H]1C(=O)N[C@H]1CCC[C@@H]1C(N)=O)NC(=O)[C@H]1CCC[C@@H]1NC(=O)[C@H]1CCC[C@@H]1NC(=O)C[C@H](Cc1ccc(O)cc1)NC(=O)[C@H]1CCC[C@@H]1NC(=O)[C@H]1CCC[C@@H]1N [H12 YM] | 
249 µM |  |  | CC[C@H](C)[C@@H](CC(=O)N[C@H]1CCC[C@@H]1C(=O)N[C@H]1CCC[C@@H]1C(N)=O)NC(=O)[C@H]1CCC[C@@H]1NC(=O)[C@H]1CCC[C@@H]1NC(=O)C[C@H](CC(=O)O)NC(=O)[C@H]1CCC[C@@H]1NC(=O)[C@H]1CCC[C@@H]1N [H12 DI] | Kd (S100A4; H12 library): 449 µM
249 µM |  |  | CC(C)C[C@@H](CC(=O)N[C@H]1CCC[C@@H]1C(=O)N[C@H]1CCC[C@@H]1C(N)=O)NC(=O)[C@H]1CCC[C@@H]1NC(=O)[C@H]1CCC[C@@H]1NC(=O)C[C@H](CC(=O)O)NC(=O)[C@H]1CCC[C@@H]1NC(=O)[C@H]1CCC[C@@H]1N [H12 DL] | Kd (S100A4; H12 library): 449 µM
247 µM | 127 µM | 342 µM | CSCC[C@@H](CC(=O)N[C@H]1CCC[C@@H]1C(=O)N[C@H]1CCC[C@@H]1C(=O)N[C@H](CC(=O)N[C@H]1CCC[C@@H]1C(=O)N[C@H]1CCC[C@@H]1C(N)=O)C(C)C)NC(=O)[C@H]1CCC[C@@H]1NC(=O)[C@H]1CCC[C@@H]1N [H12 MV] | 
243 µM | 128 µM | 443 µM | NC(=O)[C@H]1CCC[C@@H]1NC(=O)[C@H]1CCC[C@@H]1NC(=O)C[C@H](Cc1ccc(O)cc1)NC(=O)[C@H]1CCC[C@@H]1NC(=O)[C@H]1CCC[C@@H]1NC(=O)C[C@H](Cc1ccc(O)cc1)NC(=O)[C@H]1CCC[C@@H]1NC(=O)[C@H]1CCC[C@@H]1N [H12 YY] | 
231 µM | 146 µM | 330 µM | N=C(N)NCCC[C@@H](CC(=O)N[C@H]1CCC[C@@H]1C(=O)N[C@H]1CCC[C@@H]1C(N)=O)NC(=O)[C@H]1CCC[C@@H]1NC(=O)[C@H]1CCC[C@@H]1NC(=O)C[C@H](CCCCN)NC(=O)[C@H]1CCC[C@@H]1NC(=O)[C@H]1CCC[C@@H]1N [H12 KR] | 
231 µM | 146 µM | 330 µM | N=C(N)NCCC[C@@H](CC(=O)N[C@H]1CCC[C@@H]1C(=O)N[C@H]1CCC[C@@H]1C(=O)N[C@@H](CCCCN)CC(=O)N[C@H]1CCC[C@@H]1C(=O)N[C@H]1CCC[C@@H]1C(N)=O)NC(=O)[C@H]1CCC[C@@H]1NC(=O)[C@H]1CCC[C@@H]1N [H12 RK] | 
